One data set concerns pheromone glands. The data set is described as follows: de novo pheromone production by isolated pheromone glands in vitro (radiolabel incorporation). It is filed as cell-based, Helicoverpa (Heliothis) armigera. To be noted: for inhibition of Hez-PBAN-activated sex pheromone production: Hez-PBAN 0.05 μM, inhibitor in μM range, FIG. 3. From the text:
(§1) Two distinct assay systems were applied in order to determine the inhibition of PBAN-induced pheromone production, elicited by aryloxyphenoxy propionates and cyclohexandione oximes such as diclofop, diclofop-methyl and tralkoxydim. The first assay monitors de novo pheromone production by isolated pheromone glands in vitro according to the method of Rafaeli and Gileadi^7 (Experimental Section). The second assay, monitors sex pheromone production in vivo by decapitated female moths that are incapable of pheromone production unless stimulated by PBAN (Experimental section).
Intersegmental membranes (pheromone glands) between the eighth and ninth abdominal segments were removed from 2-3 day old virgin females. After 1 h preincubation in Pipes buffered incubation medium (pH 6.6), pheromone glands were dried on tissue paper and then transferred individually to 10 μl incubation medium containing 0.25 μCi [1-^14C]-acetate (56 mCi/mmole, NEN, Boston, USA) in the presence or absence of Hez-PBAN (Peninsula Labs, Belmont, Calif., USA) and in the additional presence or absence of either diclofop acid or diclofop methyl ester (FIG. 3).
Incubations were performed for 3 h at room temperature. In order to measure the incorporation of radiolabel from [1-^14C] sodium acetate, the glands were extracted in 200 μl hexane for 0.5 h at room temperature and a 100 μl aliquot of the upper hexane phase was measured in a β-counter. Relative levels of incorporation into the pheromone component were determined using HPLC analysis as reported previously^9 using a Vydac C18 reversed phase column and a linear gradient from 40-55% acetonitrile. Fractions were collected every minute and radioactivity determined. The radioactive elution profile (shown in FIG. 8) was compared to known elution times of standard palmitic acid, Z11-hexadecenol and the main pheromone product of H. armigera^10, Z11-hexadecenal (Sigma, USA). In some experiments [1-^14C]-acetyl CoA (Amersham Pharmacia Biotech, UK.) or [9, 10-^3H]-palmitic acid (Life Science Products, Inc, Texas, USA) were substituted for [1-^14C]-acetate in order to measure relative incorporation into pheromone from these precursors. The effect of palmitoyl CoA (Sigma) was also tested in a different set of experiments using [^14C]-acetate as precursor (as shown in FIG. 2).

For another data set, the system named is decapitated female moths. The data set is described as follows: sex pheromone production in vivo by decapitated female moths. More on the design: species or system Helicoverpa (Heliothis) armigera. To be noted: diclofop acid 10 μmol/female, PBAN 1 pmol/female, FIG. 7.
Source text: as §1
In vivo sex pheromone production by female moths was determined in 2-day old females. The females were decapitated during the photophase of day 1 and subsequently maintained for an additional 24 h, after which they were injected with either physiological saline (control) or 1 pmol/moth Hez-PBAN in saline, and in the additional presence or absence of diclofop acid. Ovipositor tips (containing pheromone glands) were removed 2 h after injection and extracted for 10 min in hexane, containing 25 ng tridecanyl acetate (Sigma, USA) as internal standard. […] Z11-hexadecenal was quantified using the internal standard quantification methods as described previously^9.

The test system of a further data set is ACCase enzyme. The data set is described as follows: Inhibition of ACCase (partially purified enzyme from pheromone glands). It is filed as biochemical, Helicoverpa (Heliothis) armigera. To be noted: in vitro, enzyme from pheromone producing tissue, FIG. 6. From the text: The […] enzyme was extracted from pheromone glands separated on TMAE column and the eluted enzyme was used. Acetyl CoA was used as a substrate that requires HCO3^- where radiolabeled HCO3^- was used. In the presence of the enzyme, the substrate will be converted to radiolabeled malonyl CoA (see FIG. 1). Therefore, the difference in the level of incorporation of the radiolabeled malonyl CoA in the presence and absence of the […] enzyme was used to obtain the activity level of endogenous […] in the presence or absence of herbicides (FIG. 6).

The subject of data set [1] is bees and beneficial insects. The settings on record: field conditions; cited from earlier work.

The values below come from patent US20060039943A1, “Acetyl-CoA carboxylase inhibitors for use as pesticides” (Yissum Research Development Company fo the Hebrew University, priority 2003, published 2006).

As for `CC(Oc1ccc(Oc2ccc(Cl)cc2Cl)cc1)C(=O)O` (centres unmarked) [diclofop acid], the “inhibition of Hez-PBAN-activated sex pheromone production” value in the data set on pheromone glands (in vitro) is on record as “significantly inhibits”. In addition, the “inhibition of in vivo synthesis of pheromone Z11-hexadecenal induced by PBAN” value with decapitated female moths is “inhibited the production of the pheromone”. Besides, the “inhibition of partially purified ACCase enzyme activity” value in the data set on ACCase enzyme was “may inhibit directly”. Further, in data set [1], the “toxicity to bees and beneficial insects” value is “relatively non-toxic”. Consider `COC(=O)C(C)Oc1ccc(Oc2ccc(Cl)cc2Cl)cc1` (centres unmarked) [diclofop-methyl], for which, in the data set with pheromone glands (in vitro), the “inhibition of Hez-PBAN-activated sex pheromone production” value was “significantly inhibits pheromone production to the same extent as the acid”.

`CCCCCCCCCCCCCCCC(=O)O` [palmitic acid]: the “effect on the pheromonotropic action of PBAN” value with pheromone glands (addition of palmitic acid, data not shown) is reported as “did not affect”. Regarding `CCCCCCCCCCCCCCCC(=O)SCCNC(=O)CCNC(=O)[C@H](O)C(C)(C)COP(=O)(O)OP(=O)(O)OC[C@H]1O[C@@H](n2cnc3c(N)ncnc32)[C@H](O)[C@@H]1OP(=O)(O)O` [palmitoyl-CoA], the “effect on production of pheromone” value with pheromone glands (in vitro, 0.01 μM Hez-PBAN, 14C-acetate, FIG. 2) is given as “inhibiting its biosynthesis”. For `CCO/N=C(\CC)C1=C(O)CC(c2c(C)cc(C)cc2C)CC1=O` (centres unmarked) [tralkoxydim], in the data set with pheromone glands (in vitro, Hez-PBAN 0.01 μM, FIG. 5), the “concentration at which the inhibitory effect occurs” value worked out at 100 µM.
